Source: patent US20250134874A1, “PHARMACEUTICAL FORMULATIONS COMPRISING 3-({[(4R)-7-{METHYL[4-(PROPAN-2-YL)PHENYL]AMINO}-3,4-DIHYDRO-2H-1-BENZOPYRAN-4-YL]METHYL}AMINO)PYRIDINE-4-CARBOXYLIC ACID” (TACHYON THERAPEUTICS, INC., priority 2021, published 2025)

System: 301 cancer cell lines from different tumor types (OncoPanel; HD Biosciences)
Test: 2D cell viability inhibition assay (CellTiter-Glo) in cancer cell line panel
Format: cell-based
Parameters: key to AUC: AUC as fraction of the no-inhibition area (dose range × 0–100 % of control)
Conditions: for Emax: in %
Description: In a larger screening study, compound 1 was evaluated across a broad cancer cell line panel (OncoPanel; HD Biosciences) composed of 301 cancer cell lines from different tumor types.
2D cell viability inhibition assays were performed in multiwell plates seeded with cells from the panel. After seeding, the plates were cultured overnight in a humidified incubator at 37° C. to promote adherence. Assays were initiated in individual wells by adding either DMSO as a vehicle control, growth media as a blank, or serially diluted compound 1 (10 μM to 0.0005 μM with 1:3 serial dilution). Cultures were incubated for 168 hours after which the number of viable cells in each test well was assessed using the CellTiter-Glo® Luminescent Cell Viability Assay. Luminescence readouts were performed using an EnVision® Multilabel Reader and the compound 1 readouts were normalized to the DMSO control readouts, expressed as a percent of the control. Outliers were flagged out by visual inspection. Percent of control was plotted against the corresponding compound 1 concentration and the absolute IC50 value was determined using four-parameter logistic non-linear regression as the concentration where inhibition was 50% of the control. For maximum inhibition <50%, the absolute IC50 was reported as >10. In addition to EC50 and IC50, AUC was determined and was normalized to the area corresponding to theoretical no-inhibition (the rectangular area defined by the compound dose range and 0 to 100 in y). Emax was recorded as the minimum in y with the compound dose range. For those cell lines where Emax>40, EC50 was manually set to 10 μM. A hierarchical clustering algorithm based on Euclidean distance between the standardized input values and “Ward.D” method as implemented in R hclust function was used to visualize the compound 1 cellular potency data. The sensitive/moderate/resistant calls for each cell line was determined by visually inspecting the resulting clustering dendrogram. All the analyses were done in R Core Team.

CC(C)c1ccc(N(C)c2ccc3c(c2)OCC[C@H]3CNc2cnccc2C(=O)O)cc1 [Compound 1, 3-({[(4R)-7-{methyl[4-(propan-2-yl)phenyl]amino}-3,4-dihydro-2H-1-benzopyran-4-yl]methyl}amino)pyridine-4-carboxylic acid]
AUC (RPMI7951, skin, NS, 168 hours): 0.8067 | AUC (RPMI8226 cell line): 0.4363 | Emax (RPMI8226 cell line): 12.46 | AUC (RT11284 cell line): 0.3717 | AUC (SAOS2, bone, NS, 168 hours): 1.081 | AUC (SCABER cell line): 0.5687 | Emax (SCABER cell line): 32.32 | AUC (SCC4 cell line): 0.4619 | Emax (SCC4 cell line): 26.08 | AUC (SCC9, upper aerodigestive tract, squamous cell carcinoma, 168 hours): 0.9424 | AUC (SCC15, upper aerodigestive tract, squamous cell carcinoma, 168 hours): 0.9489 | AUC (SCC25, upper aerodigestive tract, squamous cell carcinoma, 168 hours): 0.7789 | AUC (SHSY5Y cell line): 0.4927 | Emax (SHSY5Y cell line): 25.04 | AUC (SKBR3 cell line): 0.4396 | Emax (SKBR3 cell line): 26.59 | AUC (SKCO1 cell line): 0.5952 | AUC (SKHEP1, liver, adenocarcinoma, 168 hours): 0.7091 | AUC (SKLU1 cell line): 0.5662 | AUC (SKMEL1 cell line): 0.4427 | Emax (SKMEL1 cell line): 22.0664 | AUC (SKMEL2 cell line): 0.6392 | AUC (SKMEL3 cell line): 0.6207 | AUC (SKMEL5 cell line): 0.4074 | Emax (SKMEL5 cell line): 8.228 | AUC (SKMEL24, skin, NS, 168 hours): 0.7882 | AUC (SKMEL28 cell line): 0.2796 | AUC (SKMEL31, skin, NS, 168 hours): 0.7393 | AUC (SKMES1 cell line): 0.6069 | AUC (SKNSH, autonomic ganglia, NS, 168 hours): 0.7295 | AUC (SKOV3, ovary, adenocarcinoma, 168 hours): 0.9901 | AUC (SNB19 cell line): 0.4677 | Emax (SNB19 cell line): 20.73 | AUC (SNGM cell line): 0.9165 | EC50 (SNGM cell line): 4.14 µM | IC50 (SNGM cell line): 4.9 µM | AUC (SNU5 cell line): 0.6837 | AUC (SNU16 cell line): 0.2821 | AUC (SNU398 cell line): 0.4911 | Emax (SNU398 cell line): 25.8616 | EC50 (SNU668, SNU668 cell line): 0.0128 µM | IC50 (SNU668, SNU668 cell line): 0.0189 µM | AUC (SNU668 cell line): 0.464 | AUC (SNU761 cell line): 0.5814 | EC50 (SNU761 cell line): ≥ 10 µM | IC50 (SNU761 cell line): 0.0397 µM | IC50 (SNU878, SNU878 cell line): > 10 µM | AUC (SNU878 cell line): 0.6648 | AUC (SNU886 cell line): 0.6425 | IC50 (SNU-886, SNU886 cell line): > 10 µM | AUC (SNUC1, large intestine, adenocarcinoma, 168 hours): 0.7478 | AUC (SNUC2A cell line): 0.615 | EC50 (SNUC2A cell line): 0.0245 µM | IC50 (SNUC2A cell line): 0.0525 µM | AUC (SUPT1 cell line): 0.6913 | AUC (SW48 cell line): 0.6038 | AUC (SW480 cell line): 0.409 | Emax (SW480 cell line): 20.36 | IC50 (SW579, 168 h, SW579, thyroid, anaplastic carcinoma, 168 hours): > 10 µM | AUC (SW579, thyroid, anaplastic carcinoma, 168 hours): 0.9203 | AUC (SW620 cell line): 0.4658 | AUC (SW780 cell line): 0.4491 | Emax (SW780 cell line): 13.9761 | AUC (SW837, large intestine, adenocarcinoma, 168 hours): 0.7109 | IC50 (SW1271, 168 h, SW1271, lung, small cell carcinoma, 168 hours): > 10 µM | AUC (SW1271, lung, small cell carcinoma, 168 hours): 0.8179 | AUC (SW1417, large intestine, adenocarcinoma, 168 hours): 0.9634 | AUC (SW1463 cell line): 0.3408 | Emax (SW1463 cell line): 7.126 | AUC (SW1710 cell line): 0.5768 | AUC (SW1990 cell line): 0.6894 | AUC (T24, urinary tract, transitional cell carcinoma, 168 hours): 0.9289 | AUC (T84 cell line): 0.4928 | AUC (T.T cell line): 0.4321 | Emax (T.T cell line): 24.08 | AUC (TALL1 cell line): 0.1999 | AUC (TE1, oesophagus, squamous cell carcinoma, 168 hours): 0.938 | AUC (TE4 cell line): 0.3948 | EC50 (TE4 cell line): 0.00911 µM | IC50 (TE4 cell line): 0.0127 µM | Emax (TE4 cell line): 11.49 | AUC (TE5 cell line): 0.3877 | Emax (TE5 cell line): 15.07 | AUC (TE6 cell line): 0.3625 | Emax (TE6 cell line): 14.02 | AUC (TE8, oesophagus, squamous cell carcinoma, 168 hours): 0.816 | AUC (TE9 cell line): 0.4247 | Emax (TE9 cell line): 25.31 | AUC (TE10 cell line): 0.5293 | Emax (TE10 cell line): 29.65 | AUC (TE11 cell line): 0.304 | AUC (TE14 cell line): 0.3068 | EC50 (TE14 cell line): 0.00232 µM | IC50 (TE14 cell line): 0.00339 µM | AUC (TE15, oesophagus, squamous cell carcinoma, 168 hours): 1.084 | AUC (TF1 cell line): 0.2883 | AUC (THP1 cell line): 0.3371 | AUC (TOV112D cell line): 0.3964 | Emax (TOV112D cell line): 23.19 | AUC (U2OS cell line): 0.4065 | Emax (U2OS cell line): 9.064 | AUC (U87MG cell line): 0.514 | Emax (U87MG cell line): 38.45 | AUC (U937 cell line): 0.1808 | AUC (UACC812, breast, ductal carcinoma, 168 hours): 0.8418 | AUC (UMUC3 cell line): 0.5934 | AUC (VCAP, prostate, adenocarcinoma, 168 hours): 0.7822 | AUC (WM115 cell line): 0.6097 | AUC (WM2664 cell line): 0.5838 | AUC (WSUDLCL2 cell line): 0.2829 | AUC (YD38 cell line): 0.2983 | EC50 (YD38 cell line): 0.00355 µM | IC50 (YD38 cell line): 0.00377 µM
